From publication PMC3068608 (Journal of medicinal chemistry, 2011)
“Also recorded” adds a separate entry of the source. Like-named read-outs stand apart in the source and are kept apart here.

Key:
human μ opioid receptor [1] = biological target: T1, human μ opioid receptor (Homo sapiens, UniProt P35372); experiment: [35S]GTPγS binding mediated by the μ opioid receptor, CHO membranes; type: biochemical; conditions: for pharmacological properties / IC50: μ receptor; for pharmacological properties: [35S]GTPγS; for IC50: inhibition of binding stimulated by 200 nM DAMGO
T1 sequence (P35372 whole entry): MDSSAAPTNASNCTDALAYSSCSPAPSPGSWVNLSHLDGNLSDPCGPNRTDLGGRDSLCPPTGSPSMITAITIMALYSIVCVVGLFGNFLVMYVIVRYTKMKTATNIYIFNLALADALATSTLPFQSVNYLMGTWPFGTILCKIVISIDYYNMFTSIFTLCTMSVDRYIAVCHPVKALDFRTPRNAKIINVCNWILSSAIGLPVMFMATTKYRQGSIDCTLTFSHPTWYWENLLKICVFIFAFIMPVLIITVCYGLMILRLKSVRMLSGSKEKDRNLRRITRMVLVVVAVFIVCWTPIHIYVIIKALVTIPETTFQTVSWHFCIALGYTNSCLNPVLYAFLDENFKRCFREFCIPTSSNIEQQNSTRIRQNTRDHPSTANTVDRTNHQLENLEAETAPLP

human κ opioid receptor [2] = biological target: T2, human κ opioid receptor (Homo sapiens, UniProt P41145); experiment: [35S]GTPγS binding mediated by the κ opioid receptor, CHO membranes; type: biochemical; conditions: for Emax ± SEM (% maximal stimulation): κ receptor, [35S]GTPγS
T2 sequence (P41145 whole entry): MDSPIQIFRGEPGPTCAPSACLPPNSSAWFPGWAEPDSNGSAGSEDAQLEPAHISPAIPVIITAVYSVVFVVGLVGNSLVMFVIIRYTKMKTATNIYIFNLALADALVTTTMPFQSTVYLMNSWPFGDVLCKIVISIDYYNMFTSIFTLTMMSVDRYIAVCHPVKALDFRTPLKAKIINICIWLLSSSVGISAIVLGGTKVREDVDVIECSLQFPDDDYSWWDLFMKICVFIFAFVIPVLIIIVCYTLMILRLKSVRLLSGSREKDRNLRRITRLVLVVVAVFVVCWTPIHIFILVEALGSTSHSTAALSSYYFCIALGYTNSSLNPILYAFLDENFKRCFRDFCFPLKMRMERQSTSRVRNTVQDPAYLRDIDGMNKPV

human μ opioid receptor [3] = biological target: T1, human μ opioid receptor; experiment: Opioid receptor binding, [3H]DAMGO, CHO cell membranes; conditions: for Ki (nM) ± SEM [3H]DAMGO (μ): CHO membranes, human μ receptor, 25 °C
human κ opioid receptor [4] = biological target: T2, human κ opioid receptor; experiment: Opioid receptor binding, [3H]U69,593, CHO cell membranes; conditions: for Ki (nM) ± SEM [3H]U69,593 (κ): CHO membranes, human κ receptor, 25 °C; for Selectivity σ/κ: ratio of Ki values (δ over κ)
[5] = acute and chronic treatment; ref [7]; cited from earlier work
human μ opioid receptor [6] = biological target: T1, human μ opioid receptor; conditions: [35S]GTPγS, ref [5c],[10c]; cited from earlier work
human κ opioid receptor [7] = biological target: T2, human κ opioid receptor; conditions: [35S]GTPγS, ref [5c],[10c]; cited from earlier work
human κ opioid receptor [8] = biological target: T2, human κ opioid receptor; conditions: ratio of Ki values (δ over κ), literature compounds; ref [5c], [10c], [11]; cited from earlier work
human δ opioid receptor [9] = biological target: T3, human δ opioid receptor (Homo sapiens, UniProt P41143); conditions: at 10 μM; ref [5c], [10c], [11]; cited from earlier work
T3 sequence (P41143 whole entry): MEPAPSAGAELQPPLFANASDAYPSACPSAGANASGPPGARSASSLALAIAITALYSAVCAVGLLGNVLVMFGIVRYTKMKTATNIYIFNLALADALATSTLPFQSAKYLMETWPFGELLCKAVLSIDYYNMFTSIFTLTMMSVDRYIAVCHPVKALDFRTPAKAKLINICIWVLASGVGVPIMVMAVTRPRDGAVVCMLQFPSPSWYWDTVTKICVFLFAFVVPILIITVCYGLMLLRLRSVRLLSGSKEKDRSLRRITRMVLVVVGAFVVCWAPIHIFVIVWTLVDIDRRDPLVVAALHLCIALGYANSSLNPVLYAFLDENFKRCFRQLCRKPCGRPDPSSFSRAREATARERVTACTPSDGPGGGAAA

human δ opioid receptor [10] = biological target: T3, human δ opioid receptor; experiment: Opioid receptor binding, [3H]naltrindole, CHO cell membranes

CNc1nc2cc3c(cc2s1)C[C@@H]1[C@@H]2CCCC[C@]32CCN1CC1CC1 [13a, N′-Methylaminothiazolo[5,4-b]-N-cyclopropylmethylmorphinan]
pharmacological properties (human μ opioid receptor [1]): partial agonist activity; also recorded: partial agonists

CNc1nc2cc3c(cc2s1)C[C@@H]1[C@@H]2CCCC[C@]32CCN1CCCF [13c, N′-Methyl-aminothiazolo[5,4-b]-N-fluoropropylmorphinan]
EC50 (human κ opioid receptor [2]): 120 ± 6.7 nM | Emax ± SEM (% maximal stimulation) (human κ opioid receptor [2]): higher Emax than that of selective agonist U50,488 | EC50 (human μ opioid receptor [1]): 420 ± 17 nM | pharmacological properties (human μ opioid receptor [1]): full agonist activity; also recorded: full agonists | IC50 (human μ opioid receptor [1]): > 10000 nM

CCCNc1nc2cc3c(cc2s1)C[C@@H]1[C@@H]2CCCC[C@]32CCN1CCCF [16c, N′-Propyl-aminothiazolo[5,4-b]-N-fluoropropylmorphinan]
Ki (nM) ± SEM [3H]DAMGO (μ) (human μ opioid receptor [3]): low affinity | Ki (nM) ± SEM [3H]U69,593 (κ) (human κ opioid receptor [4]): low affinity

CN(C)c1nc2cc3c(cc2s1)C[C@@H]1[C@@H]2CCCC[C@]32CCN1CC1CC1 [17a, N′, N′-Dimethyl-aminothiazolo[5,4-b]-N-cyclopropylmethylmorphinan]
pharmacological properties (human μ opioid receptor [1]): partial agonist activity

CN(C)c1nc2cc3c(cc2s1)C[C@@H]1[C@@H]2CCCC[C@]32CCN1CCCF [17c, N′, N′-Dimethyl-aminothiazolo[5,4-b]-N-fluoropropylmethylmorphinan]
Ki (nM) ± SEM [3H]DAMGO (μ) (human μ opioid receptor [3]): low affinity | Ki (nM) ± SEM [3H]U69,593 (κ) (human κ opioid receptor [4]): low affinity

CCNc1nc2cc3c(cc2s1)C[C@@H]1[C@@H]2CCCC[C@]32CCN1CC1CC1 [19a, N′-Ethyl-aminothiazolo[5,4-b]-N-cyclopropylmethylmorphinan]
EC50 (human κ opioid receptor [2]): 22 ± 5.1 nM | Emax ± SEM (% maximal stimulation) (human κ opioid receptor [2]): higher Emax than that of selective agonist U50,488 | EC50 (human μ opioid receptor [1]): 29 ± 4.6 nM | pharmacological properties (human μ opioid receptor [1]): full agonist activity; also recorded: full agonists | IC50 (human μ opioid receptor [1]): > 10000 nM

CCNc1nc2cc3c(cc2s1)C[C@@H]1[C@@H]2CCCC[C@]32CCN1CCCF [19c, N′-Ethyl-aminothiazolo[5,4-b]-N-fluoropropylmorphinan]
Emax ± SEM (% maximal stimulation) (human κ opioid receptor [2]): higher Emax than that of selective agonist U50,488 | pharmacological properties (human μ opioid receptor [1]): full agonist activity; also recorded: full agonists | IC50 (human μ opioid receptor [1]): > 10000 nM

Oc1ccc2c(c1)[C@@]13CCCC[C@H]1[C@@H](C2)N(CC1CCC1)CC3 [butorphan]
cocaine self-administration [5]: reduced cocaine self-administration dose-dependently

Oc1ccc2c(c1)[C@@]13CCCC[C@H]1[C@@H](C2)N(CC1CC1)CC3 [compound 1, cyclorphan, reference compound]
pharmacological properties (human μ opioid receptor [6]): Partial agonist | Emax ± SEM (% maximal stimulation) (human κ opioid receptor [7]): 90 ±10 % maximal stimulation | cocaine self-administration [5]: reduced cocaine self-administration dose-dependently

Nc1nc2cc3c(cc2o1)[C@@]12CCCC[C@H]1[C@@H](C3)N(CC1CC1)CC2 [compound 4]
Selectivity σ/κ (human κ opioid receptor [8]): >192 | inhibition of [3H]Naltrindole (δ) binding (human δ opioid receptor [9]): 18% inh at 10 μM

Nc1nc2cc3c(cc2s1)C[C@@H]1[C@@H]2CCCC[C@]32CCN1CCCF [compound 11, Aminothiazolo[5,4-b]-N-fluoropropylmorphinan]
pharmacological properties (human μ opioid receptor [1]): partial agonist activity

Nc1nc2cc3c(cc2s1)C[C@@H]1[C@@H]2CCCC[C@]32CCN1C[C@@H]1CCCO1 [compound 12, Aminothiazolo[5,4-b]-N-(S)-tetrahydrofurylmethylmorphinan]
pharmacological properties (human μ opioid receptor [1]): full agonist activity; also recorded: full agonists | IC50 (human μ opioid receptor [1]): > 10000 nM

FC(F)(F)CNc1nc2cc3c(cc2s1)C[C@@H]1[C@@H]2CCCC[C@]32CCN1CC1CC1 [compound 15, N′-Trifluoroethyl-aminothiazolo[5,4-b]-N-cyclopropylmethylmorphinan]
Emax ± SEM (% maximal stimulation) (human κ opioid receptor [2]): higher Emax than that of selective agonist U50,488

c1ccc(Nc2nc3cc4c(cc3s2)C[C@@H]2[C@@H]3CCCC[C@]43CCN2CC2CC2)nc1 [compound 27, N′-(Pyridin-2-yl)-aminothiazolo[5,4-b]-N-cyclopropylmethylmorphinan]
Selectivity σ/κ (human κ opioid receptor [4]): >110

c1c2c(cc3sc(N4CCNCC4)nc13)C[C@@H]1[C@@H]3CCCC[C@]23CCN1CC1CC1 [compound 28, N′-(Piperazin-1-yl)-thiazolo[5,4-b]-N-cyclopropylmethylmorphinan]
Ki (human μ opioid receptor [3]): 2700 ± 320 nM | Ki (human δ opioid receptor [10]): > 10000 nM | Ki (human κ opioid receptor [4]): 110 ± 16 nM | Selectivity μ/κ (human κ opioid receptor [4]; ratio of Ki values): 25 | Selectivity σ/κ (human κ opioid receptor [4]): >91
